Laboratory results reported in BindingDB's records for doi:10.1016/j.ejmech.2017.11.048 (University of New Mexico, 2018).

molecular target: T1, Nuclear factor erythroid 2-related factor 2 (Homo sapiens, UniProt Q16236); assay: Activation of Nrf2 (unknown origin) expressed in human HepG2 cells after 5 hrs by ARE-driven luciferase reporter gene assay
T1 sequence (Q16236 whole entry): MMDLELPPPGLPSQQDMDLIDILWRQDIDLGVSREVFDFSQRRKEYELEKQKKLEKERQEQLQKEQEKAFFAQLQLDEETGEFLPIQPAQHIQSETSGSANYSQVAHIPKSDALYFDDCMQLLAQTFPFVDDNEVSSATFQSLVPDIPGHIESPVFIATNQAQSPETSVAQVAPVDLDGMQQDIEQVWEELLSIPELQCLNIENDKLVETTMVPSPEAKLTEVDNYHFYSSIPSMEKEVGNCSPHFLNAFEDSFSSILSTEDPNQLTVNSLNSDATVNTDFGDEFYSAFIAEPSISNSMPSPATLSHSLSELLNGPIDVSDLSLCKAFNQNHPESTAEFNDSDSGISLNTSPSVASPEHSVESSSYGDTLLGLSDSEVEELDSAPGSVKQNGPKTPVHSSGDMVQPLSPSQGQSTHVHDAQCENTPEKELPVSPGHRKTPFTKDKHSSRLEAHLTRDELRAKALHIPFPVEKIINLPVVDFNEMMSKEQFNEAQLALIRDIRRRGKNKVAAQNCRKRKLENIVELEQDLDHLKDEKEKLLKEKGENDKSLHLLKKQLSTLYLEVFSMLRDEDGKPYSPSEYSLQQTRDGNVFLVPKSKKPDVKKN

| SMILES | EC50 [µM] |
| --- | --- |
| Cc1ccc(C(=O)/C=C/c2ccccc2)c(C)c1 | 21.1 |
| COc1cc(/C=C/C(=O)/C=C/c2ccc(O)c(OC)c2)ccc1O [(1E,4E)-1,5-Bis-(4-hydroxy-3-methoxy-phenyl)-penta-1,4-dien-3-one] | 9.9 |
| COc1cc(/C=C/C(=O)CC(=O)/C=C/c2ccc(O)c(OC)c2)ccc1O [CHEBI:3962] | 21 |

Now those with a lower EC50, led by results:

| EC50 [µM] | SMILES |
| --- | --- |
| 5.3 | COc1cc(/C=C2\CCC/C(=C\c3cc(OC)cc(OC)c3)C2=O)cc(OC)c1 |
| 3.3 | O=C(/C=C/c1ccccc1O)/C=C/c1ccccc1O [US9187397, 20q] |
| 1.32 | COc1cc(OC)c(OC)cc1/C=C/C(=O)/C=C/c1cc(OC)c(OC)cc1OC [Go-Y021] |
